The structures appear in SMILES notation.

Assay [1] deals with moderate traumatic brain injury (TBI) induced by controlled cortical impact (CCI). The assay is described as follows: Foot-fault test (right forelimb and hindlimb) after TBI. In kind it is in vivo, male Wistar rats. The procedure:
FIG. 2: The figure illustrates functional tests that are carried out on healthy (sham surgery) no treatment, vehicle treated and ALPHA-1062 treated rats to assess sensorimotor and cognitive function after TBI. Sensimotor function tests. a) The figure depicts tests to assess the modified neurological severity score (mNSS). […] The animal is required to balance over a grid and the frequency of steps missing the grid are counted. This test assesses the functionality of the injured parietal cortex of the rat's brain. c) The adhesive removal test consists of applying adhesive tape on each forepaw of the animal and measuring the time-to-contact and the time-to-remove them. This behavior requires correct paw and mouth sensitivity (time-to-contact) and correct dexterity (time-to-remove). Cognitive function tests: a) This picture illustrates the Morris water maze that comprises that a rat is placed in a large circular pool (picture on the left) and is required to find an invisible platform that allows it to escape the water by using various visuo-spatial cues. This test is used to study spatial learning and memory and assesses hippocampal and select cortical brain region function. Usually, the path of the rat through the pool is tracked (picture on the right) and the time spend in the proximity of the platform as well as the time needed until the platform is found by the rat are measured. b) For the new/novel object recognition (NOR) test, after a habituation time in the test space (picture on far left) rats are given the opportunity to explore two identical objects (A) for a predetermined period of time (picture in the middle). After a delay, the animals are then presented with two objects to explore, one of which is the same as in the first exploration trial (A), the other a new object (B) (picture on the right). Depending on the length of the delay between the two trials or depending on the extend of cortical damage, the rats will either explore the novel object for a greater time period, indicating memory for the familiar object, or will explore the novel and familiar objects for the same amount of time, indicating a lack of recall or loss of memory for the familiar object presented during the initial trial.
(§1) Young adult (2-3 months) male Wistar rats were subjected to a moderate traumatic brain injury (TBI) induced by controlled cortical impact (CCI). Animal models of TBI including the CCI model and functional tests have been described in detail in peer reviewed publications (Xiong et al., 2013, Nat Rev Neurosci.; Zhang et al., 2016, J Neurosurg.; Zhang et al., 2016, Neurochem Int.; Zhang et al., 2021, J Neurotrauma). Injury consisted of a single impact at 4.0 m/sec, 2.5 mm deformation to the left parietal cortex. In addition, a group of animals was left healthy/not injured to serve as a healthy control.
The animals were divided into 3 groups: • 1) TBI+Vehicle (purified water, n=10) • 2) TBI+ALPHA-1062 (4.5 mg/kg) (n=10) • 3) Healthy/not injured and not treated (Sham surgery) (n=10)
The substance used in this study was ALPHA-1062 at 4.5 mg/kg. As control treatment (vehicle) purified water was administered intranasally (IN). The ALPHA-1062 and the control treatment were initiated 2 hours after injury and continued twice daily (with a 6-hour interval) for 35 consecutive days.
In addition, neurological functional tests were performed by conducting footfault tests and observations to determine the modified neurological severity score (mNSS) at 1, 7, 14, 21, 28, 35 days after TBI (see Table 1). The mNSS is a composite score assessing motor, sensory, balance, and reflex functions. Details of the tests and scoring system can be found in Table 2.
Animals were monitored as they walked across a mesh for the number of times their right forelimb “missed” proper placement, indicating reduced locomotor skill. This is indicative of trauma in the left side of the brain. The results are depicted in FIG. 3. […]

Assay [2] concerns NeuN positive cells in DG, CA1, CA3 and cortex. Kind of assay: NeuN IHC, neuronal cell loss 35 days post-TBI. The assay is classed as in vivo, male Wistar rats. Particulars: 4.5 mg/kg IN twice daily; 35 days following TBI.
Excerpt: as §1
The substance used in this study was ALPHA-1062 at 4.5 mg/kg. As control treatment (vehicle) purified water was administered intranasally (IN). […]
Histological assessment was performed including quantitative image analysis protocols; followed by statistical analysis of the data. […]
For cell counting and quantitation NeuN+ cells were examined in the ipsilateral cortex, DG, CA1, and CA3 regions of the ipsilateral hippocampus. […] The number of BrdU+ cells (red-fluorophore) and NeuN (green-fluorophore)/BrdU-colabeled cells (yellow after merge) were counted. […] The immune-positive cells were determined and divided by the measured areas and presented as numbers per square mm. […]

`COc1ccc2c3c1O[C@H]1C[C@@H](OC(=O)c4ccccc4)C=C[C@@]31CCN(C)C2` [ALPHA-1062, (4aS,6R,8aS)-5,6,9,10,11,12-hexahydro-3-methoxy-11-methyl-4aH-[1]benzofuro[3a,3,2-ef][2]benzazepin-6-ol benzoate]: the “foot-fault performance compared to uninjured (sham) animals” value in assay [1] (4.5 mg/kg IN twice daily, by day 28 (D28)) is listed as “statistically indistinguishable”. In assay [1] (4.5 mg/kg IN twice daily, from the first day of treatment, vs vehicle), the “locomotor skill in fore- and hindlimb foot-fault test, acute” value is reported as “statistically significant preservation of locomotor skill”. Besides, the “recovery of locomotor skill in fore- and hindlimb foot-fault test” value in assay [1] (4.5 mg/kg IN twice daily, throughout the study, vs vehicle) was “persistently statistically significantly improved recovery”. Moreover, in assay [1] (4.5 mg/kg IN, 2 h post injury, twice daily, 35 days, vs vehicle after TBI (FIG. 3)), the “right forelimb foot faults during the walk over a mesh” value is listed as “significantly fewer foot faults”. The “right hindlimb foot faults during the walk over a mesh” value in assay [1] (4.5 mg/kg IN, 2 h post injury, twice daily, 35 days, vs vehicle after TBI (FIG. 4)) was “significantly fewer foot faults”. For the same compound, the “Footfault, performance over SHAM” value in assay [1] (rats after TBI, compared to healthy sham animals) is listed as “equivalent to”. For the same compound, the “Footfault, performance over VEHICLE” value in assay [1] (rats after TBI, compared to vehicle treatment) was “superior”. In addition, in assay [2], the “neuron numbers (NeuN) in DG, CA1, CA3 and cortex, compared to vehicle” value is “reduced loss of neurons”; the “neuronal cell numbers (NeuN) compared to sham surgery animals” value is recorded as “did not differ significantly”.

The record behind these values is US12589099B2 (priority 2021, dated 2026).
